{"source": "patent US20260306640A1", "about": "“TECHNOLOGIES TARGETING CELL STATES” (Auron Therapeutics, Inc., priority 2023, published 2026)", "key": {"NCI-H1048 cells": {"system": "NCI-H1048 cells", "assay": "Cell growth inhibition (cell count, 8 days), small cell lung cancer NCI-H1048 cells", "assay_type": "cell-based", "conditions": "Homo sapiens, 192 h, cell count relative to DMSO control after 8 days, FIG. 1 (C)", "experimental": "(§1) FIG. 1. Provided compounds can provide various activities including inhibiting tumor growth in vivo. (A): Provided compounds can inhibit tumor growth in vivo. Nude Balb/c mice were inoculated with NCI-H1048 cells in Matrigel. Tumors were allowed to grow up to about 200 mm^3 and mice were then randomized into two groups. Mice were dosed intraperitoneally (i.p.) once per week with vehicle or 30 mg/kg compound 22. Tumor size was measured every three to four days and mice were sacrificed once vehicle tumors reached 2000 mm^3. Error bar is SEM. Dosing started at day 17 post tumor inoculation. (B): Provided technologies can reduce KAT2A and KAT2B levels and histone acetylation levels. […] Vehicle is DMSO. […] Cell count data relative to DMSO control after 8 days of treatment with compound 22 are presented as examples to confirm inhibition. GI50=6 nM. (D): Provided technologies can inhibit tumor growth in vivo. Nude balb/c mice inoculated with H1048 tumors were dosed intraperitoneally once per week (qw i.p.) with vehicle (HbCD) or compound 22. Average tumor volumes+/−SEM from 6 mice are represented. […] See also (A). […] Certain body weights relative to starting weight are presented as examples to confirm tolerability and safety. (F): Provided technologies can reduce KAT2A and KAT2B levels and histone acetylation levels in tumor in vivo. […]"}, "[1]": {"assay": "Tolerability / body weight relative to starting weight in nude Balb/c mice bearing H1048 tumors", "assay_type": "in vivo", "conditions": "once per week i.p.; 30 mg/kg; FIG. 1 (D), (E)", "experimental": "as §1"}, "[2]": {"system": "neuroendocrine prostate cancer cells, e.g., LASCPC-01 cells", "assay": "Differentiation GSEA signatures from RNA-Seq, LASCPC-01", "assay_type": "cell-based", "conditions": "FIG. 3", "experimental": "In some embodiments, GSEA signatures are utilized for assessing cell states, differentiation, etc. In some assessments, differentiation GSEA signatures, e.g., from RNA-Seq was performed. A useful protocol is described herein as an example. In some assessments, LASCPC-01 cells, NEPC organoid cell pellets, or NCI-H1048 tumor pieces were flash frozen upon harvest and stored at −80° C. RNA was isolated, mRNA library was prepared (poly A enrichment) and sequencing was run. Reads were aligned to reference v38 using Kallis to generate gene count matrices for each sample. The gene count matrix was the input to the ML pipelines that generate normal atlas scores and cell state classification. It was also input to differential expression analysis using Edger in R. The output of differential expression was input to gene set enrichment analysis (GSEA) to define gene sets that were most shifted by treatment. For defining specific epithelial differentiation endpoints to generate the solid tumor differentiation box plots, cell state gene sets resulting from GSEA are consolidated by cell state to define a consensus set of genes that define epithelial differentiation. Other suitable technologies may also utilized in accordance with the present disclosure."}, "KAT2A [3]": {"target": "T1, KAT2A (Homo sapiens, UniProt Q92830)", "T1 sequence (Q92830 whole entry)": "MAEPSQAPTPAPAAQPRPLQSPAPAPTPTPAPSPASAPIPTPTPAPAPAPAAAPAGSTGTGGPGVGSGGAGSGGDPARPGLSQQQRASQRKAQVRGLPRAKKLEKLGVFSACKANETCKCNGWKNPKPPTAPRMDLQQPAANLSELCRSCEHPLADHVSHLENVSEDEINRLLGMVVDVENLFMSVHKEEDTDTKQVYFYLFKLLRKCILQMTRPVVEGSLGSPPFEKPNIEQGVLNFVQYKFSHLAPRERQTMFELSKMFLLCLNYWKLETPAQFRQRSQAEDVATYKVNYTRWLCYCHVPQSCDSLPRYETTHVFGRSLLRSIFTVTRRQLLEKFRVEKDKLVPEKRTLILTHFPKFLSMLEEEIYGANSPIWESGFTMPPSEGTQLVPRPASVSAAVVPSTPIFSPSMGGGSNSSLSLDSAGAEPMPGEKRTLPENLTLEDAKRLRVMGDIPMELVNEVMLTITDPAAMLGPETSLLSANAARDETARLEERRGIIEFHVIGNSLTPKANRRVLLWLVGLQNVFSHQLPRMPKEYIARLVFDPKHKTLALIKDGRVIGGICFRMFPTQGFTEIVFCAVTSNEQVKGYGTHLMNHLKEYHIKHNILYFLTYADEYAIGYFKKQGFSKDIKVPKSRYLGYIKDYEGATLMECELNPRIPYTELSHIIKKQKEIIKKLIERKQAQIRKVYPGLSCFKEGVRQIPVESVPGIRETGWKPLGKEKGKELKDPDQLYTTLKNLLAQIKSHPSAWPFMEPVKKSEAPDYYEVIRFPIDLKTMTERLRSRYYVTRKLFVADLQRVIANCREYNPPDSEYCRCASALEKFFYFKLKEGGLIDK", "assay": "Western blot of KAT2A level in NCI-H1048 cells, 24 h", "assay_type": "cell-based", "set-up": "degrader, Western blot", "conditions": "various concentrations, FIG. 1 (B)", "experimental": "as §1"}, "microglial GSEA": {"system": "microglial GSEA", "assay": "Microglial GSEA in NEPC primary patient organoid", "assay_type": "cell-based", "conditions": "both epithelial and neural components; FIG. 3 (F)", "experimental": "(§2) FIG. 3. Provided compounds can provide various activities. (A): Provided technologies can reduce KAT2A and KAT2B levels and histone acetylation levels. […] Cell viability (Cell Titer Glo) data relative to DMSO control after 7 days of treatment with compound 22 are presented as examples to confirm inhibition. GI50=5 nM. (C): Provided technologies can modulate cell states and induce differentiation. […] (D): Provided technologies can reduce KAT2A and KAT2B levels and histone acetylation levels including in neuroendocrine prostate cancer primary patient organoid. […] Concentrations are nM. […] Cell viability data relative to DMSO control after 21 days of treatment with compound 22 are presented as examples to confirm inhibition. GI50=3 nM. (F): Provided technologies can modulate cell states and induce differentiation."}, "KAT2A [4]": {"target": "T1, KAT2A", "assay": "Western blot of KAT2A level in neuroendocrine prostate cancer LASCPC-01 cells, 24 hours", "assay_type": "cell-based", "set-up": "degrader, Western blot", "conditions": "FIG. 3 (A)", "experimental": "as §2"}, "[5]": {"system": "histone acetylation (e.g., AcH3K9)", "assay": "Histone H3K9 acetylation (AcH3K9), Western Blot, MOLM-13 cells", "assay_type": "cell-based", "conditions": "FIG. 2", "experimental": "In some embodiments, an assessment is performed using cells. In some embodiments, cells were treated with various compounds before assessing KAT2A and/or KAT2B levels, histone (e.g., H3K9) acetylation levels, cell states, growth, etc.\nWestern Blot: In some assessments, MOLM13, NCI-H1048, LASCPC-01 and NEPC organoid cells were treated with compounds at certain concentrations for certain periods of time, and cell pellets were lysed by adding 1-part 4×laemmli Sample buffer (e.g., Bio-Rad Catalog #1610747) along with Mercaptoethanol (e.g., Bio-Rad Catalog #1610710) according to manufacturer's instructions, and 1-part RIPA buffer with 2×protease and phosphatase inhibitor. The samples were sonicated 30% amplitude, 35 seconds on and 35 seconds off for 1 cycle and boiled at 95° C. for 5 minutes. 30-35 μL of samples were loaded on a 4-15% Criterion™ TGX Stain-Free™ Protein Gel (Bio-rad, 5678084). In some assessments, NCI-H1048 flash frozen tumor pieces were resuspended in RIPA buffer and homogenized on TissueLyser II with steel beads at 30 Hz for 3 minutes. Samples were then centrifuged at […] at 4° C. for 15 minutes. BCA protein determination was performed and samples normalized for 1.95 ug/uL. 19.5 uL were loaded and run on similar gels as cell pellets. […]"}, "histone acetylation [6]": {"system": "histone acetylation", "assay": "Western blot of histone acetylation in NCI-H1048 tumors, 168 hours post last dose", "assay_type": "in vivo", "conditions": "FIG. 1 (F)", "experimental": "as §1"}, "histone acetylation [7]": {"system": "histone acetylation", "assay": "Western blot of histone acetylation in NCI-H1048 cells, 24 h", "assay_type": "cell-based", "conditions": "various concentrations, FIG. 1 (B)", "experimental": "as §1"}}, "data": [{"smiles": "CN1C[C@H](Nc2cnn(C)c(=O)c2Br)C[C@H](c2ccc(C(=O)N3CCC(CN4CCN(c5ccc6c(c5)CN(C5CCC(=O)NC5=O)C6=O)CC4)CC3)cc2)C1", "note": "(stereo partly drawn) [Compound 22, 3-(5-(4-((1-(4-((3R,5R)-5-((5-bromo-1-methyl-6-oxo-1,6-dihydropyridazin-4-yl)amino)-1-methylpiperidin-3-yl)benzoyl)piperidin-4-yl)methyl)piperazin-1-yl)-1-oxoisoindolin-2-yl)piperidine-2,6-dione]", "values": [{"measurement": "GI50", "setting": "NCI-H1048 cells", "result": 6, "unit": "nM"}, {"measurement": "tolerability (body weights relative to starting weight)", "setting": "[1]", "result": "well tolerated"}, {"measurement": "induction of differentiation", "setting": "[2]", "result": "induce differentiation (e.g., epithelial, neural, and/or microglial)"}, {"measurement": "reduction of KAT2A level", "setting": "KAT2A [3]", "result": "confirm such reduction"}, {"measurement": "microglial GSEA", "setting": "microglial GSEA", "result": "significant upregulation"}, {"measurement": "reduction of KAT2A level", "setting": "KAT2A [4]", "result": "confirm such reduction"}, {"measurement": "histone acetylation (e.g., AcH3K9) levels", "setting": "[5]", "result": "reduce histone acetylation (e.g., AcH3K9) levels"}, {"measurement": "reduction of histone acetylation in tumor", "setting": "histone acetylation [6]", "result": "significant reduction"}, {"measurement": "reduction of histone acetylation level", "setting": "histone acetylation [7]", "result": "confirm such reduction"}]}]}
